# Reference: patent US9901637B2, “Vitamin D3 and analogs thereof for treating alopecia” (priority 2009, dated 2018)
# Like-named read-outs stand apart in the source and are kept apart here.
# Columns and labels:
# [1] = Preliminary animal toxicology study; format: in vivo; conditions: dose of about 100 μg
# HEKa cells = test: Pretreatment of cells with calcitriol, cell viability assay with chemotherapy drugs; format: cell-based, human
# Excerpt: Then these pretreated cells were utilized to set up the cell-based assay. […] The four cancer cell lines continued to grow and were not altered in their general morphological appearances. […] For this cell line, a new batch of cells were started and were exposed to only a single passage in the presence of calcitriol, prior to testing in the presence of the chemotherapy drugs. Three commonly used chemotherapy drugs (doxorubicin, cisplatin and erlotinib) were selected to evaluate calcitriol treated cells. […] In these experiments, the commercial drugs were serially diluted, starting at a concentration 4-times higher than the final desired concentration for cell incubation. […] The assay was carried out according to the previously described method in order to provide consistency and allow direct comparison. The result was based upon measurement of the total number of viable cells. […] Thus, a topical application of calcitriol could be applied at the same time as the systemic delivery of the chemotherapy. A staged application is not required.
# NCI-ES-0808 = test: Cell growth/viability assay, calcitriol with or without chemotherapy drug; format: cell-based
# [2] = test system: chemotherapy-induced alopecia (CIA); conditions: for protection from etoposide-induced alopecia: etoposide 1.5 mg/kg daily for 3 days
# Method: Specifically, Long Evans and Sprague Dawley rats with pups were purchased from Harlan Laboratories, Inc. They were housed and fed according to applicable animal handling rules and regulations. Pups were allowed to acclimate for 48 hours prior to the start of experiments. […] Rats were isolated from their littermates and mother for 6-hour periods of time. Subsequently, the treated area was cleaned with soap and water and pups were returned to their litters. On day 13, rats either received etoposide (1.5 mg/kg daily for 3 days) or cyclophosphamide (CTX) (37.5 mg/kg once) or combination cyclophosphamide (35 mg/kg once) and doxorubicin (2.5 mg/kg daily for 3 days). All chemotherapies were purchased from Sigma and were given intraperitoneally (i.p.) in a total volume of 0.1 mL. Alopecia was recorded 10 days after the last dose of chemotherapy.
# MIAC51 = test: Survival (cure) rate of chloroleukemic rats after two rounds of chemotherapy; format: in vivo, Long Evans Rats
# Method: Animals were then randomized in four groups. All rats received MIAC51 as described below.
# On day 5 after birth all rats received 1×105 MIAC51 intraperitoneally in 0.1 ml of serum free (SF) RPMI. MIAC51 were cultured in RPMI 1640 supplemented with L-glutamine and 10% fetal bovine serum at […] in a 5% CO2, 100% humidity incubator. Cells were grown to 50% confluency (1.5×106 ml) collected in 50 ml conical tubes, centrifuged at 600 g for 10 minutes at room temperature and resuspended in SF-RPMI at a concentration of 1×10^6/ml prior to injection.
# in vivo = conditions: Gottingen, minipig, topical
# Excerpt: At the end of the study, the skin was reflected from a ventral midline incision, and sections of treated and untreated skin were collected and preserved. Sections of each 6×6 cm dosing site were first thoroughly surface washed with a mild soap and water mixture (e.g., 1% Ivory Soap in water or equivalent) to remove any residual topical test formulation. The washed skin sections were then wiped clean with ethanol, and were excised down to and including the adipose layer. If the area to be excised is larger than the dosed area, the dosed area was demarked with indelible ink to delineate the skin area that was dosed. The 1.5 cm×1.5 cm sections were laid flat, wrapped in two layers of Saran wrap (or equivalent) and flash frozen in liquid nitrogen. The samples were stored at −70° C. and shipped on dry ice via overnight courier for analysis. Each skin section was identified as appropriate (e.g., animal identification, study number, date, etc).
# Upon arrival at the analysis site, skin sections were placed in water tight plastic bag and thawed by emersion in warm water (˜30° C.-35° C.). Each skin section was gently rinsed with distilled de-ionized water to remove any residual test article and blood. All subcutaneous tissue (e.g., adipose) was removed by manual scalpel ablation. Within the central region of the dosed area, four individual 1 cm^2 circles (replicates) were demarked, and each site was subsequently identified and the actual area recorded. The replicate test sites were then excised from the skin sheet using a 1 cm^2 punch. The skin sections were weighed and the weight recorded. […] This process removed the stratum corneum and any residual surface dose.
# Following tape stripping, the skin was separated into epidermis (sans stratum corneum, simply referred to herein after as “epidermis”) and dermis by heat exposure to 60° C. for approximately 1-1.5 minutes. The skin layers were then teased apart using fine-tipped forceps or scalpel. The epidermis and dermis were weighed and the weight recorded.
# For extraction, all skin samples were extracted in 1 mL of absolute ethanol (Sigma-Aldrich, USP/NF Grade). Tape strips were extracted in 5 mL acetonitrile (EMD, HPLC Grade). All extractions were conducted at room temperature for approximately 24 hours. An amount of 500 μL of the tape strip extract was dried by vacuum centrifugation and reconstituted in 100 μL absolute acetonitrile. The epidermal extract was also dried and reconstituted in 100 μL 80:20 ethanol:water.
# Lower limit of detection is estimated at 0.4 ng/mL.
# However, the concentration reported, as μg/mg, is determined by the differential total sample weight before layer separation minus the weights of the epidermis and dermis for that sample (rather than by actual weight due to its adherence to the tape strips). Epidermal and dermal samples are reported as tissue concentration (ng/mg) using the amount measured from the sample divided by actual wet weight of the skin layer.
# [3] = test system: SkBr-3 (breast adenocarcinoma cancer, Her2 overexpressed); test: Cell growth/viability assay, calcitriol with or without chemotherapy drug; format: cell-based
# [4] = test system: Primary human epidermal keratinocytes (HEKa); test: Real-time PCR array, Heat Shock Protein Array, calcitriol-treated HEKa; format: cell-based; conditions: HEKa cells, 0.1 μg/mL calcitriol
# Method: Changes in mRNA levels were evaluated using real-time PCR quantification to assess mRNA levels in preselected subsets containing 80 pathway specific targets (see Appendix). The PCR array analysis utilized two groups of genes—those related to Heat Shock Proteins (SABiosciences), and those related to Neuroscience Ion Channels and Transporters (SABioscience). Primary human epidermal keratinocytes (HEKa) were maintained in Epilife Medium (Cascade Biologics, Inc., Portland Oreg.) along with Human Keratinocyte Growth Supplement (Cascade Biologics, Inc., Portland Oreg.). […] Vehicle control group of cells were treated with 5 mL media containing 1 μL of ethanol. Cells were harvested 3, 6, 16, 24, 48, or 72 hours after the start of the treatment. Cells were lysed for RNA isolation at different treatment times using the RNeasy Mini kit (Qiagen, Inc., Valencia Calif.) following the manufacturer's instructions. RNA was quantified by measuring optical density at 260 nm. First Strand Synthesis: […] Products from the first strand synthesis were diluted with water, mixed with the SYBR green master mix (SABiosciences, Frederick Md.) and loaded onto PCR arrays. Real time PCR was run on the PCR Arrays (Heat Shock Protein Arrays, and Neuroscience and Ion Channel Arrays) (SABiosciences, Frederick Md.) on a Biorad CFX96. Data analyses were performed using the PCR array data analysis software available on the SABiosciences website.
# [5] = test system: MCF-7 (breast cancer with p53 mutation); test: Cell growth/viability assay, calcitriol with or without chemotherapy drug; format: cell-based
# [6] = test system: MIAC51 (chloroleukemia cells); test: Rats transplanted with chloroleukemia: protection of cancer cells from chemotherapy; format: in vivo; conditions: Long Evans rats injected with MIAC51, cyclophosphamide; preliminary results
# Method: For experiments in which rats were transplanted with chloroleukemia, on Day 5 after birth, rats were randomly divided into three groups of 45 each. All rats received 1×10^5 chloroleukemic cell line MIAC51 (i.p.) in 0.1 mL of serum free (SF) RPMI. MIAC51 were cultured in RPMI 1640 supplemented with L-glutamine and 10% fetal bovine serum at 37° C. in a 5% CO2, 100% humidity incubator. Cells were grown to 50% confluency (1.5×106 mL) collected in 50 mL conical tubes, centrifuged at 600 g×10 min. at room temperature and resuspended in SF-RPMI at a concentration of 1×10^6/mL. Group 1 rats received no further treatment. Group 2 rats received topical vehicle and CTX on day 13. […] Topical applications were performed as described above.
# On day 23 after birth, a sample of blood was taken from all rats and differentials performed. Rats with leukemia were sacrificed, rats without leukemia were kept and a second differential performed on day 31, at any point if leukemia was detected, animals were sacrificed by CO2 asphyxiation.
smiles,measurement,setting,value
"C=C1/C(=C\C=C2/CCC[C@]3(C)[C@@H]([C@H](C)CCCC(C)(C)O)CC[C@@H]23)C[C@@H](O)C[C@@H]1O [Calcitriol, 1,25-dihydroxyvitamin D3]",dermal irritation,[1],no dermal irritation
same,skin penetration,[1],excellent epidermal penetration without substantial dermal penetration
same,growth of HEKa cells after prolonged calcitriol exposure,HEKa cells; 0.1 μg/mL calcitriol for two cell passages,stopped growing
same,"chemoprotective effect, pre-treatment group versus simultaneous treatment group","HEKa cells; 0.1 μg/mL calcitriol, doxorubicin, cisplatin, erlotinib",nearly identical
same,effect of calcitriol on cell growth,NCI-ES-0808,no significant growth promoting or growth inhibiting effects
same,effect on the cytotoxic effect of Doxorubicin,NCI-ES-0808,did not appear to appreciably alter
same,dosage protective against CIA,"[2]; neonatal rat, administered as 100 μL of 2 μg/mL topical solution",about 0.2 μg
same,protection from etoposide-induced alopecia,"[2]; neonatal rats, 0.1 μg of calcitriol topical for 6 hours daily, 6 days",partial localized protection
same,protection from cyclophosphamide-induced alopecia,"[2]; neonatal rats, 0.3 μg calcitriol topical, cyclophosphamide 37.5 mg/kg once",full body protection
same,protection from etoposide-induced alopecia,"[2]; neonatal rats, 0.3 calcitriol topical",total body protection
same,interference with the cure rate,"MIAC51; cyclophosphamide and doxorubicin group, cure rate in the range of 50-55%",did not interfere with the cure rate
same,interference with the cure rate,"MIAC51; cyclophosphamide group, cure rate in the range of 20-25%",did not interfere with the cure rate
same,interference with the cure rate,"MIAC51; cyclophosphamide, doxorubicin and cytarabine group, cure rate in the range of 75-80%",did not interfere with the cure rate
same,interference with the cure rate,"MIAC51; cyclophosphamide, paclitaxel and etoposide group, cure rate in the range of 78-83%",did not interfere with the cure rate
same,interference with the cure rate,"MIAC51; doxorubicin, paclitaxel and etoposide group, cure rate in the range of 80-83%",did not interfere with the cure rate
same,concentration at 7 days,"in vivo; female, stratum corneum (tape strips), 1 μg/mL",30 ± 50 ng/g
same,concentration at 7 days,"in vivo; female, stratum corneum (tape strips), 3 μg/mL",40 ± 60 ng/g
same,concentration at 7 days,"in vivo; female, stratum corneum (tape strips), 10 μg/mL",50 ± 40 ng/g
same,concentration at 7 days,"in vivo; female, stratum corneum (tape strips), 30 μg/mL",640 ± 370 ng/g
same,concentration at 7 days,"in vivo; female, 1 μg/mL",0 ng/g
same,concentration at 7 days,"in vivo; female, 3 μg/mL",0 ng/g
same,concentration at 7 days,"in vivo; male, stratum corneum (tape strips), 1 μg/mL",1540 ± 790 ng/g
same,concentration at 7 days,"in vivo; male, stratum corneum (tape strips), 3 μg/mL",1630 ± 250 ng/g
same,concentration at 7 days,"in vivo; male, stratum corneum (tape strips), 10 μg/mL",2020 ± 390 ng/g
same,concentration at 7 days,"in vivo; male, stratum corneum (tape strips), 30 μg/mL",1510 ± 890 ng/g
same,concentration at 7 days,"in vivo; male, stratum corneum (tape strips), 100 μg/mL",4520 ± 1210 ng/g
same,effect of calcitriol on cell growth,[3],no significant growth promoting or growth inhibiting effects
same,effect on the cytotoxic effect of Doxorubicin,[3],did not appear to appreciably alter
same,HSPB1 (Heat shock 27 kDa protein 1) mRNA Regulation Pattern,[4]; regulated in two independent experiments,Down regulated at 48 hours
same,"DNAJC6 (DnaJ (Hsp40) homolog, subfamily C, member 6) mRNA Regulation Pattern",[4]; two independent experiments,Downregulated
same,HSF4 (Heat shock transcription factor 4) mRNA Regulation Pattern,[4]; two independent experiments,Upregulated at 48 hours
same,HSPA2 (Heat shock 70 kDa protein 2) mRNA Regulation Pattern,[4]; two independent experiments,Upregulated at 48 hours
same,concentrations giving calcitriol growth inhibition,[5]; MCF-7,> 0.5 µg/mL
same,concentrations giving calcitriol growth stimulation,[5]; MCF-7,0.05 to 0.25 µg/mL
same,effect on the cytotoxic effect of Doxorubicin,[5]; MCF-7,did not appear to appreciably alter
same,"response to other drugs (doxorubucin, cisplatin, erlotinib) after calcitriol exposure","[5]; MCF-7, 0.1 μg/mL calcitriol for two passages",did not alter
same,protection of the cancer cells from chemotherapy by topical calcitriol,[6],have not shown protection of the cancer cells
